Measurements taken from US5622962A, “5α-reductase inhibitors” (priority 1995, dated 1997).
Where “and” joins values, the source holds several entries; their conditions need not be identical. Identical values can stand only once.

Key:
[1] = target: T1, Type I 5α-Reductase from Human Scalp (Homo sapiens, UniProt P18405); assay: Human Type I 5α-reductase assay (conversion of [3H]-testosterone to 5α-reduced metabolites); format: biochemical; conditions: 50 nM [3H]-testosterone, pH 7.5, 25°, 180 min, compared to control reaction mixtures; for inhibition at 0.3 µM: pH 7.5, 0.3 μM, read-out: percent inhibition of Type I AR
T1 construct: Scalp punch biopsies from graft recipient sites were obtained from human hair transplant procedures; from tissue; host or cells: human scalp punch biopsies (hair transplant graft recipient sites), homogenate, 100,000×g pellet
T1 sequence (P18405 1-259): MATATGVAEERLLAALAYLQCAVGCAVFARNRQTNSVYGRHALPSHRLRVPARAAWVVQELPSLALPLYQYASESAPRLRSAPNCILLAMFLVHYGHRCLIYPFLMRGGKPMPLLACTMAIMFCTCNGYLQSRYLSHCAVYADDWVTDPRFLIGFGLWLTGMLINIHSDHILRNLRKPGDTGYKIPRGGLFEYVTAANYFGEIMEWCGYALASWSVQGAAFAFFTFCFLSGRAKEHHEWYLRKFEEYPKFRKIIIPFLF

[2] = target: T2, Type II 5α-Reductase from Human Prostate (Homo sapiens, UniProt P31213); assay: Human Type II 5α-reductase assay (conversion of [3H]-testosterone to 5α-reduced metabolites); format: biochemical; conditions: sodium acetate pH 5.5, 25°, 30 min, compared to control reaction mixtures; for inhibition at 0.3 µM: pH 5.5, 0.3 μM, read-out: percent inhibition of Type II AR; for percent inhibition of Type II AR: 0.3 μM
T2 construct: The same procedure as above was used for preparations using tissue from prostate surgery; from tissue; host or cells: human prostate tissue from surgery, homogenate, 100,000×g pellet
T2 sequence (P31213 1-254): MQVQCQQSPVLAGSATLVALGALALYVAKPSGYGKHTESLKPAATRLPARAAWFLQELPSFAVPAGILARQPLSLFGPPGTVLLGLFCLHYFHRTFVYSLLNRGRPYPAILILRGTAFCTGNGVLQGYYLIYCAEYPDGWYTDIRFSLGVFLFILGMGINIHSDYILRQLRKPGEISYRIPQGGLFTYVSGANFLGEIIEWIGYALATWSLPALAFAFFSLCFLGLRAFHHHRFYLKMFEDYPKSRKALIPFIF

| SMILES | inhibition at 0.3 µM [1] [%] | inhibition at 0.3 µM [2] [%] | percent inhibition of Type I AR ([1]; 0.3 μM) [%] | percent inhibition of Type II AR [2] |
| --- | --- | --- | --- | --- |
| CN1C(=O)CC[C@]2(C)c3ccc(CCc4ccc5ccccc5c4)cc3CC[C@@H]12 [Example 276, (+)-(4aR)-(10bR)-4-methyl-8-(2-[2-naphthyl]ethyl)-10b-methyl-1,2,3,4,4a,5,6,10b-octahydrobenzo[f]quinolin-3-one] | 92 | 33 | – | – |
| CN1C(=O)CC[C@]2(C)c3ccc(-c4cccc(C(=O)NC5CCN(Cc6ccccc6)CC5)c4)cc3CC[C@@H]12 [Example 209, (+)-(4aR)-(10bR)-4-methyl-8-(3-[1-benzyl-4-piperidinylcarboxamido]phenyl)-10b-methyl-1,2,3,4,4a,5,6,10b-octahydrobenzo[f]quinolin-3-one] | 24 | 11 | – | – |
| CSc1ccc(-c2ccc3c(c2)CC[C@H]2N(C)C(=O)CC[C@]32C)cc1 [Example 120, (+)-(4aR)-(10bR)-4-methyl-8-(4-methylthiophenyl)-10b-methyl-1,2,3,4,4a,5,6,10b-octahydrobenzo[f]quinolin-3-one] | 93 | 37 | – | – |
| CN1C(=O)CC[C@]2(C)c3ccc(Sc4nc5c(Cl)cccc5s4)cc3CC[C@@H]12 [Example 164, (+)-(4aR)-(10bR)-4-methyl-8-(4-chloro-2-benzothiazolylthio)-10b-methyl-1,2,3,4,4a,5,6,10b-octahydrobenzo[f]quinolin-3-one] | 85 | 86 | 87 | 85% and 79% |
| CN1C(=O)CC[C@]2(C)c3ccc(-c4nc5c(F)cccc5s4)cc3CC[C@@H]12 [Example 261, (+)-(4aR)-(10bR)-4-methyl-8-(2-[4-fluoro]benzothiazolyl)-10b-methyl-1,2,3,4,4a,5,6,10b-octahydrobenzo[f]quinolin-3-one] | 86 | 49 | – | – |
| CN1C(=O)CC[C@]2(C)c3ccc(-c4cc(F)cc(C(F)(F)F)c4)cc3CC[C@@H]12 [Example 216, (+)-(4aR)-(10bR)-4-methyl-8-(3-fluoro-5-trifluoromethylphenyl)-10b-methyl-1,2,3,4,4a,5,6,10b-octahydrobenzo[f]-quinolin-3-one] | 78 | 24 | – | – |
| CN1C(=O)CC[C@]2(C)c3ccc(-c4ccc5c6c(cccc46)CC5)cc3CC[C@@H]12 [Example 66, (+)-(4aR)-(10bR)-4-methyl-8-(5-acenaphthenyl)-10b-methyl-1,2,3,4,4a,5,6,10b-octahydrobenzo[f]quinolin-3-one] | 67 | 33 | – | – |
| CN1C(=O)CC[C@]2(C)c3ccc(Sc4nc(-c5ccccc5)nc5ccccc45)cc3CC[C@@H]12 [Example 172, (+)-(4aR)-(10bR)-4-methyl-8-(2-phenyl-4-quinazolinylthio)-10b-methyl-1,2,3,4,4a,5,6,10b-octahydrobenzo[f]quinolin-3-one] | 55 | 36 | – | – |
| CN1C(=O)CC[C@]2(C)c3ccc(Sc4nnnn4-c4ccccc4)cc3CC[C@@H]12 [Example 154, (+)-(4aR)-(10bR)-4-methyl-8-(2-[3-phenyl]tetrazoylthio)-10b-methyl-1,2,3,4,4a,5,6,10b-octahydrobenzo[f]quinolin-3-one] | 56 | 25 | – | – |
| CN1C(=O)CC[C@]2(C)c3ccc(-c4ccc(S(N)(=O)=O)cc4)cc3CC[C@@H]12 [Example 220, (+)-(4aR)-(10bR)-4-methyl-8-(4-sulfonamidophenyl)-10b-methyl-1,2,3,4,4a,5,6,10b-octahydrobenzo[f]quinolin-3-one] | 67 | 26 | – | – |
| COc1ccc(-c2c(-c3ccccc3)c(Sc3ccc4c(c3)CC[C@H]3N(C)C(=O)CC[C@]43C)nc3ccccc23)cc1 [Example 179, (+)-(4aR)-(10bR)-4-methyl-8-[3-phenyl-4-(4-methoxyphenyl)-2-quinolinylthio]-10b-methyl-1,2,3,4,4a,5,6, 10b-octahydrobenzo[f]quinolin-3-one] | 61 | 28 | – | – |
| CN1C(=O)CC[C@]2(C)c3ccc(-c4ccc5c(ccn5C(=O)OC(C)(C)C)c4)cc3CC[C@@H]12 [Example 250, (+)-(4aR)-(10bR)-4-methyl-8-(1-[t-butoxycarbonyl]-5-indolyl)-10b-methyl-1,2,3,4,4a,5,6,10b-octahydrobenzo[f]quinolin-3-one] | 83 | 1 | – | – |
| CN1C(=O)CC[C@]2(C)c3ccc(-c4cnc5ccccc5c4)cc3CC[C@@H]12 [Example 201, (+)-(4aR)-(10bR)-4-methyl-8-(3-quinolinyl)-10b-methyl-1,2,3,4,4a,5,6,10b-octahydrobenzo[f]quinolin-3-one] | 69 | 60 | – | 57% |
| Cc1cccc(Sc2ccc3c(c2)CC[C@H]2N(C)C(=O)CC[C@]32C)c1 [Example 102, (+)-(4aR)-(10bR)-4,10b-dimethyl-8-(3-methylphenylthio)-1,2,3,4,-4a,5,6,10b-octahydrobenzo[f]quinolin-3-one] | 92 | 61 | – | – |

Continued, values first:

| inhibition at 0.3 µM [1] [%] | inhibition at 0.3 µM [2] [%] | percent inhibition of Type I AR ([1]; 0.3 μM) [%] | percent inhibition of Type II AR [2] | SMILES |
| --- | --- | --- | --- | --- |
| 96 | 43 | – | – | CN1C(=O)CC[C@]2(C)c3ccc(-c4ccc(F)c(Cl)c4)cc3CC[C@@H]12 [Example 88, (+)-(4aR)-(10bR)-4-methyl-8-(3-chloro-4-fluorophenyl)-10b-methyl-1,2,3,4,4a,5,6,10b-octahydrobenzo[f]quinolin-3-one] |
| 97 | 11 | – | – | CN1C(=O)CC[C@]2(C)c3ccc(-c4cc(F)ccc4F)cc3CC[C@@H]12 [Example 229, (+)-(4aR)-(10bR)-4-methyl-8-(2,5-difluorophenyl)-10b-methyl-1,2,3,4,4a,5,6,10b-octahydrobenzo[f]quinolin-3-one] |
| 68 | 10 | – | – | CN1C(=O)CC[C@]2(C)c3ccc(-c4cc(Cl)cc(Cl)c4)cc3CC[C@@H]12 [Example 52, (+)-(4aR)-(10bR)-4-methyl-8-(3,5-dichlorophenyl)-10b-methyl-1,2,3,4,4a,5,6,10b-octahydrobenzo[f]quinolin-3-one] |
| 88 | 54 | – | – | CN1C(=O)CC[C@]2(C)c3ccc(-c4cc(F)c([N+](=O)[O-])cc4F)cc3CC[C@@H]12 [Example 243, (+)-(4aR)-(10bR)-4-methyl-8-(2,5-difluoro-4-nitrophenyl)-10b-methyl-1,2,3,4,4a,5,6,10b-octahydrobenzo[f]quinolin-3-one] |
| 87 | 24 | – | – | CN1C(=O)CC[C@]2(C)c3ccc(-c4cc(Cl)sc4Cl)cc3CC[C@@H]12 [Example 132, (+)-(4aR)-(10bR)-4-methyl-8-(3-[2,5-dichlororo]thienyl)-10b-methyl-1,2,3,4,4a,5,6,10b-octahydrobenzo[f]quinolin-3-one] |
| 5 | 24 | – | – | CN1C(=O)CC[C@]2(C)c3ccc(-c4ccccn4)cc3CC[C@@H]12 [Example 242, (+)-(4aR)-(10bR)-4-methyl-8-(2-pyridinyl)-10b-methyl-1,2,3,4,4a,5,6,10b-octahydrobenzo[f]quinolin-3-one] |
| 83 | 31 | – | – | CN1C(=O)CC[C@]2(C)c3ccc(-c4ccc(O)c(Cl)c4)cc3CC[C@@H]12 [Example 25, (+)-(4aR)-(10bR)-4-methyl-8-(3-chloro-4-hydroxyphenyl)-10b-methyl-1,2,3,4,4a,5,6,10b-octahydrobenzo[f]quinolin-3-one] |
